Columns and labels:
[1] = Test Example 1: Evaluation of the solubility in an organic solvent (saturated solution, HPLC); assay type: physicochemical; conditions: for amount of the compound dissolved in 100 g of organic solvent: per 100 g solvent, 20° C., saturated, stirred one hour or longer; for solubility as compared to the compound in Reference Synthesis Example 3: in toluene, cyclopentyl methyl ether, and ethyl acetate
Experimental: In the measurement of the solubility, the compounds obtained in Synthesis Examples 2 and 6 and Reference Synthesis Example 3 were used.
(§1) A test compound was dissolved in toluene, cyclopentyl methyl ether, or ethyl acetate so as to be saturated, and stirred at 20° C. for one hour or longer. The obtained solution was subjected to centrifugal filtration, and then the resultant filtrate was subjected to analysis under the below-shown conditions for measurement, determining an amount of the test compound dissolved.
(§2) • High performance liquid chromatography: HPLC-20A, manufactured by SHIMADZU Corporation • Column: XBridge C18 (2.5 μm, 4.6×100 mm) • Column oven temperature: 40° C. • Eluent: A=0.2 vol % aqueous solution of trifluoroacetic acid • B=0.2 vol % acetonitrile solution of trifluoroacetic acid • AB=50/50 (0 to 2 minutes), 50/50 to 0/100 (2 to 15 minutes), 0/100 (15 to 40 minutes) • Eluent flow rate: 1.0 mL/minute • Wavelength for detection: 210 nm [Results of Test]
The compounds in Synthesis Examples 2 and 6 were improved in the solubility in toluene, cyclopentyl methyl ether, and ethyl acetate, as compared to the compound in Reference Synthesis Example 3.

[2] = Test Example 2: Evaluation of the solubility in an organic solvent (HPLC); assay type: physicochemical; conditions: for amount of the compound dissolved in 100 g of organic solvent: per 100 g solvent, 20° C., stirred one hour or longer
Experimental: In the measurement of the solubility, the compound obtained in Synthesis Example 8 was used.
as §1, with “acetate,” for “acetate so as to be saturated,”
as §2
The compound in Synthesis Example 8 was improved in the solubility in toluene, cyclopentyl methyl ether, and ethyl acetate, as compared to the compound in Reference Synthesis Example 3.

Row | SMILES | amount of the compound dissolved in 100 g of organic solvent ([1]; cyclopentyl methyl ether) | amount of the compound dissolved in 100 g of organic solvent ([1]; ethyl acetate) | amount of the compound dissolved in 100 g of organic solvent ([1]; toluene) | amount of the compound dissolved in 100 g of organic solvent ([2]; cyclopentyl methyl ether) | amount of the compound dissolved in 100 g of organic solvent ([2]; ethyl acetate) | amount of the compound dissolved in 100 g of organic solvent ([2]; toluene) | solubility as compared to the compound in Reference Synthesis Example 3 [1] | solubility as compared to the compound in Reference Synthesis Example 3 ([2]; in toluene, cyclopentyl methyl ether, and ethyl acetate)
1 | C[Si](C)(C)CCOC(=O)[C@H](Cc1ccccc1)NC(=O)[C@H](Cc1ccccc1)NC(=O)OCC1c2ccccc2-c2ccccc21 [Reference Synthesis Example 3, Fmoc-Phe-Phe-OTMSE, reference compound] | 1.4 g | 4.5 g | 0.87 g | 1.4 g | 4.5 g | 0.87 g |  | 
2 | CC[Si](CC)(CCCOCC(CCC(C)CC(C)(C)C)C(C)CC(C)(C)C)CCOC(=O)[C@H](Cc1ccccc1)NC(=O)[C@H](Cc1ccccc1)NC(=O)OCC1c2ccccc2-c2ccccc21 (stereo partly drawn) [Synthesis Example 2, Fmoc-Phe-Phe-OFESE] | 111 g | 97 g | 116 g |  |  |  | improved | 
3 | CCCCCCCCCCCCCCCCCC[Si](C)(C)CCOC(=O)[C@H](Cc1ccccc1)NC(=O)[C@H](Cc1ccccc1)NC(=O)OCC1c2ccccc2-c2ccccc21 [Synthesis Example 6, Fmoc-Phe-Phe-ODMSE] | 41 g | 8.4 g | 38 g |  |  |  | improved | 
4 | CC(CCC(COCCC[Si](CCOC(=O)[C@H](Cc1ccccc1)NC(=O)[C@H](Cc1ccccc1)NC(=O)OCC1c2ccccc2-c2ccccc21)(c1ccccc1)c1ccccc1)C(C)CC(C)(C)C)CC(C)(C)C (stereo partly drawn) [Synthesis Example 8, Fmoc-Phe-Phe-OFPSE] |  |  |  | >140 g | >140 g | >140 g |  | improved

— US12466850B2, “Method for producing peptide compound” (priority 2019, dated 2025)
